Source: US20120316203A1, “Compositions and Methods for Inhibition of Cancers” (THE OHIO STATE UNIVERSITY RESEARCH FOUNDATION, priority 2009, published 2012)

Assays:
Assay type in all cases: cell-based, human
[1] = system: hOSE cells, HSMC, and HAEC; experiment: Cytotoxicity of DAPs to noncancerous cells (MTT)
Method: Cell viability was determined by a colorimetric assay using MTT. In the mitochondria of living cells, yellow MTT undergoes a reductive conversion to formazan, giving a purple color. Cells, grown to […] confluence in 75-mm flasks, were trypsinized, counted, seeded in 96-well plates with an average population of 7000 cells/well, incubated overnight, and then treated with the DAPs (H-4073, HO-3867, H4318, or HO-4200; […]) for 24 h. All experiments were done using eight replicates and repeated at least three times. Cell viability was expressed as the percentage of MIT viability of untreated cells.

[2] = system: caspase-8, caspase-7, cleaved caspase-3, PARP, Fas/CD95, Fas-L, TNF-R1 in A2780 cells; experiment: Immunoblot of apoptotic marker proteins and death receptors
Method: (§1) Cells in RPMI 1640 were treated with DMSO (control) or HO-3867 (10 μmol/L) for 24 hours. Equal volumes of DMSO (0.1% v/v) were present in each treatment. Following treatment, the cell lysates were prepared in non-denaturing lysis buffer containing 10 mmol/L Tris-HCl (pH 7.4), 150 mmol/L NaCl, 1% Triton X-100, 1 mmol/L EDTA, 1 mmol/L EGTA, 0.3 mmol/L phenylmethyl-sulfonyl fluoride, 0.2 mmol/L sodium orthovanadate, 0.5% NP40, 1 μg/mL aprotinin, and 1 μg/mL leupetin. The lysates were centrifuged at 10,000×g for 20 minutes at 4° C. and the supernatant was separated. The protein concentration in the lysates was determined using a Pierce detergent-compatible protein assay kit. For Western blotting, 25 to 50 μg of protein lysate per sample were denatured in 2×SDS-PAGE sample buffer and subjected to SDS-PAGE on a 10% tris-glycine gel. The separated proteins were transferred to a polyvinylidene fluoride membrane and were blocked with 5% nonfat milk powder (w/v) in TBST (10 mmol/L Tris, 10 mmol/L NaCl, 0.1% Tween 20) for 1 hour at room temperature or overnight at 4° C. The membranes were then incubated with the primary antibodies. The bound antibodies were detected with horseradish peroxidase-labeled sheep anti-mouse IgG or horseradish peroxidase-labeled donkey anti-rabbit IgG using an enhanced chemiluminescence detection system (ECL Advanced kit). Protein expressions were determined using the Image Gauge v. 3.45 software.

[3] = system: pSTAT3 (Tyr705 and Ser727) and phospho-JAK1 (Tyr1022/1023) in A2780 cells; experiment: Immunoblot and immunoprecipitation of JAK/STAT3 signaling; settings: 10 or 20 μmol/L, 24 hours
Method: as §1, with “Equal” for “Cells in RPMI 1640 were treated with DMSO (control) or HO-3867 (10 μmol/L) for 24 hours. Equal”

[4] = system: hOSE cells; experiment: Cell viability by MTT assay, noncancerous hOSE control cells
Method: Cell viability was determined by a colorimetric assay using MTT. In the mitochondria of living cells, yellow MTT undergoes a reductive conversion to formazan, producing a purple color. Cells, grown to […] confluence in 75-mm flasks, were trypsinized, counted, seeded in 96-well plates with an average population of 7,000 cells per well, incubated overnight, and then treated with curcumin, H-4073, or HO-3867 for 24 hours. All experiments were done using eight replicates and, repeated at least thrice.

[5] = system: USP2a, ubiquitinated FAS and FAK in A2780 and SKOV3 cells; experiment: Ubiquitination of FAS/FAK and USP2a level
Method: FIG. 15: HO-3867 downregulates FAS and FAK levels via proteasome pathways. To catch any ubiquitinated proteins in the cell lysates, agarose beads coated with domains having affinity to ubiquitin were incubated in the lysates at 4° C. for 2 hours. After washing the beads, the ubiquitinated proteins were subjected to immunoblot for FAS and FAK and blotted by the ubiquitin antibody. A predominant ubiquitination of FAS and FAK is seen in the HO-3867-treated A2780 and SKOV3 cells under proteasomal inhibition using MG 132 (50 μM).
The intracellular amount of rapid-turnover proteins, such as FAS and FAK, is tightly regulated by the ubiquitin-dependent proteolytic pathway. The fast and significant decrease in the FAS and FAK expressions observed in the HO-3867-treated cells prompted us to check any involvement of ubiquitin-dependent degradation mechanism.

Q: CC1(C)C=C(CN2C/C(=C\c3ccc(F)cc3)C(=O)/C(=C/c3ccc(F)cc3)C2)C(C)(C)N1O [HO-3867, 1-[(1-oxyl-2,2,5,5-tetramethyl-2,5-dihydro-1H-pyrrol-3-yl)methyl]-(3E,5E)-3,5-bis(4-fluorobenzylidene)piperidin-4-one] was tested. Which “cell viability of noncancerous (healthy) human cell lines” value ([1]; 10 NM, 24-h incubation) did it give?
A: significantly less toxic

Q: And the “viability of hOSE cells” value ([1]; same dose for both compounds)?
A: very little effect

Q: And the “level of activated caspases (caspase-8, caspase-7, cleaved caspase-3) and PARP” value ([2]; 24 hours, versus nontreated cells)?
A: significant increase

Q: What about the Fas-L level ([2]; data not shown) of the same compound?
A: no significant change

Q: And the “expression level of TNF-R1” value ([2]; data not shown)?
A: unchanged

Q: What about the Fas/CD95 expression ([2]; versus nontreated group) of the same compound?
A: clear increase

Q: And the “pSTAT3 (Tyr705 and Ser727) levels” value [3]?
A: significantly decreased

Q: What about the “phosphor-JAK1 (Tyr1022/1023)” value ([3]; versus unexposed controls) of the same compound?
A: substantial decrease

Q: What about the “cytotoxicity to hOSE cells” value ([4]; 20 μmol/L) of the same compound?
A: significant cytotoxicity

Q: What about the “toxicity to noncancerous hOSE cells compared with H-4073” value ([4]; equivalent doses) of the same compound?
A: significantly less toxic

Q: What about the “cytotoxicity to hOSE cells” value ([4]; up to 10 μmol/L) of the same compound?
A: no significant cytotoxicity

Q: And the USP2a level [5]?
A: clearly downregulated

Q: And the “polyubiquitination on FAS and FAK” value ([5]; co-incubation with MG-132)?
A: enhanced polyubiquitination
